One assay relates to Pyrenophora teres. Description: In vivo preventive test on Pyrenophora teres (net blotch on barley). Conditions: 240 h, 500 ppm of active ingredient, preventive spray on barley, evaluated 10 days after inoculation, read-out: efficacy.
In the next assay the test system is Sphaerotheca fuliginea. Description: In vivo preventive test on Sphaerotheca fuliginea (powdery mildew on cucurbits). To be noted: Podosphaera fuliginea, 192 h; 500 ppm of active ingredient; preventive spray on gherkin; evaluated 8 days after inoculation; read-out: efficacy.
The next assay concerns Septoria tritici. Description: Septoria tritici in vitro cell test. The class given is cell-based. Conditions: Zymoseptoria tritici, 168 h; 20 ppm of active ingredient; liquid culture, 7 days incubation; read-out: efficacy (inhibition of fungal growth). How it is done: Example: Septoria tritici In Vitro Cell Test • Solvent: DMSO • Culture medium: 14.6 g anhydrous D-glucose (VWR), 7.1 g Bacteriological Peptone (Oxoid), • 1.4 g granulated Yeast Extract (Merck), QSP 1 liter • Inoculum: spore suspension Fungicides were solubilized in DMSO and the solution used to prepare the required range of concentrations. The final concentration of DMSO used in the assay was ≤1%. A spore suspension of Septoria tritici was prepared and diluted to the desired spore density. Fungicides were evaluated for their ability to inhibit spore germination and mycelium growth in liquid culture assay. The compounds were added in the desired concentration to the culture medium with spores. After 7 days incubation, fungi-toxicity of compounds was determined by spectrometric measurement of mycelium growth. Inhibition of fungal growth was determined by comparing the absorbance values in wells containing the fungicides with the absorbance in control wells without fungicides.

On to `COc1cccc(Oc2nnc(Cl)cc2C2=NOCC(Cc3ccc(C)cc3C)N2)c1F` (racemic) [I-005, rac-3-[6-chloro-3-(2-fluoro-3-methoxy-phenoxy)pyridazin-4-yl]-5-[(2,4-dimethylphenyl)methyl]-5,6-dihydro-4H-1,2,4-oxadiazine], for which the pest or weed control at 500 ppm with Pyrenophora teres and in the assay on Sphaerotheca fuliginea was 90 to 100% throughout. Also, in the assay on Septoria tritici, the inhibition at 20 ppm lay within 70 to 79%.
Take `C=C(OCC)c1cc(C2=NOCC(Cc3ccc(C)cc3C)N2)c(Oc2cccc(C(F)(F)F)c2)nn1` (racemic) [I-009, rac-5-[(2,4-dimethylphenyl)methyl]-3-[6-(1-ethoxyvinyl)-3-[3-(trifluoro-methyl)phenoxy]pyridazin-4-yl]-5,6-dihydro-4H-1,2,4-oxadiazine]: the pest or weed control at 500 ppm with Pyrenophora teres and in the assay on Sphaerotheca fuliginea was 90 to 100% throughout. Moreover, the inhibition at 20 ppm with Septoria tritici was in the range of 90 to 100%.
`FC(F)(F)c1cccc(Oc2nnc(Cl)cc2C2=NOCC(Cc3ccc(Br)cc3Cl)N2)c1` (racemic) [I-016, rac-5-[(4-bromo-2-chloro-phenyl)methyl]-3-[6-chloro-3-[3-(trifluoromethyl)phenoxy]pyridazin-4-yl]-5,6-dihydro-4H-1,2,4-oxadiazine]: the pest or weed control at 500 ppm in the assay on Pyrenophora teres and in the assay on Sphaerotheca fuliginea was 90 to 100% throughout. In addition, in the assay on Septoria tritici, the inhibition at 20 ppm was 90 to 100%.
With `COCCOc1c(Cl)nnc(Oc2cccc(C(F)(F)F)c2)c1C1=NOCC(Cc2ccc(C)cc2C)N1` (racemic) [I-072, rac-3-[6-chloro-5-(2-methoxyethoxy)-3-[3-(trifluoro-methyl)phenoxy]pyridazin-4-yl]-5-[(2,4-dimethylphenyl)methyl]-5,6-dihydro-4H-1,2,4-oxadiazine], the pest or weed control at 500 ppm with Pyrenophora teres was in the range of 80 to 89%; with Sphaerotheca fuliginea, 90 to 100%. The inhibition at 20 ppm in the assay on Septoria tritici was in the range of 80 to 89%.

As usually defined, the inhibition is the share of the control response that was lost under treatment.

(Values after patent US12501900B2, “Heterocyclyl pyridazine as fungicidal compounds” (Bayer Aktiengesellschaft, priority 2018, dated 2025).)
